Data: patent US20160031937A1, “NEURAL REGENERATION PEPTIDES AND USES THEREFOR” (CURONZ HOLDINGS COMPANY LIMITED, priority 2013, published 2016)
“Also recorded” adds a separate entry of the source. Square brackets hold non-standard residues; d marks the D form. Ends that are not written are not given here. βAla = NCCC(=O)O

Legend:
human W9-hESCs = assay type: cell-based; conditions: 300 nM AMD3100, normoxic and OGD conditions
Method: Experiments with human embryonic stem cells (hESC) were carried out in accordance with the guidelines and regulations of the NHMRC and with the approval of the Austin Health Human Research Ethics Committee (Approval number H2008/03194), and University of Melbourne Human Research Ethics Committee (Approval number 0605017). H9 (WA-09, WiCell) cell lines were grown as previously described (Dottori & Pera, 2007).
Briefly, hESC were cultured on mitomycin-C treated mouse embryonic fibroblasts (MEFs) in hESC medium consisting of high-glucose Dulbecco's Modified Eagle Medium (DMEM) without sodium pyruvate, supplemented with 1% insulin/transferrin/selenium, 0.1 mM β-mercaptoethanol, 1% nonessential amino acids (NEAA), 2 mM glutamine, 25 U/ml penicillin, 25 μg/ml streptomycin (all from Invitrogen) and 20% fetal calf serum (FCS) (Hyclone).
Alternatively, hESC were cultured on mitomycin-C treated human foreskin fibroblasts (HFF; ATCC, CRL-2097) in KSR media consisting of DMEM/nutrient mixture F-12, supplemented with 0.1 mM […], 1% nonessential amino acids (NEAA), 2 mM glutamine, 25 U/ml penicillin, 25 μg/ml streptomycin and 20% knockout serum replacement (all from Invitrogen).
All cells were cultured at 37° C. in 5% CO2 with 100% humidity. Colonies were mechanically dissected every 7 days (subcultivated or passaged) and transferred to freshly prepared MEFs or HFFs. Media was changed every second day.
Neuronal differentiation was achieved using the noggin induction method described for mouse neurospheres as adapted by Dottori for human neurospheres (Dottori & Pera, 2007). The colonies were maintained at 37° C., with 5% CO2 in hESC medium supplemented with 500 ng/ml of Noggin for 14 days while replacing Noggin every other day.
At this point, the cells were washed with PBS and the colonies were again mechanically dissociated, but this time the central (differentiated) part of the colony was also cut into smaller pieces using a 26-gauge needle. The pieces were transferred to individual wells in a low adherent 96-well plate containing Neurobasal®A (NBM) (Invitrogen) supplemented with 1× X B-27® (Invitrogen) and 1× N-2 (Invitrogen) 20 ng/ml human recombinant EGF and 20 ng/ml human recombinant bFGF (Pharmacia). Media was changed every 2 to 3 days to allow neurosphere formation over 2 weeks.
In order to facilitate neuronal differentiation, neurospheres were again separated into smaller pieces under a dissection microscope, and three to four pieces were transferred to each well of a 96-well plate. Prior to this transfer, the plate was pre-coated with poly-D-lysine (10 μg/ml in PBS), washed in PBS, recoated with mouse laminin (5 μg/ml in PBS), and washed again. The cells were then grown for 11 days (with media changed every two days) in NBM lacking growth factors prior to induction of injury and assessment of hypothermia.
On the day of experiments, the medium was changed to NBM+N2 containing a B27 preparation lacking the usual antioxidants (Invitrogen; 10889-038) to eliminate their confounding effects (NBM-AO).
To maintain isoosmotic pressure conditions, 25 mM 2-deoxy-D-glucose was added to NBM-AO medium and equilibrated for 30 minutes at room temperature before the initial media change as described above. […] Culture supernatant was removed after this 4 hour period and stored at 4° C. until analysed for lactate dehydrogenase (LDH) activity.
The media was replaced with fresh NBM-AO and the cells were incubated for a further 20 hours containing drug, before again measuring LDH. Oxidative stress was induced by adding 50 μM fresh H2O2 (Sigma, H1009) to the growth factor negative NBM on initiation of the experiment with continued culture for 4 hours when LDH was measured and NBM-AO without H2O2 was returned to the culture which was maintained for a further 20 hours before again measuring LDH.

cerebellar granule cells = assay: Survival of cerebellar microexplants under glutamate and 3-NP toxicity; assay type: cell-based, Wistar rats; conditions: for block of NNZ-4921 neuronal survival-promoting activity: glutamate and 3-NP toxicity, 48 hours, eotaxin-3 10 and 100 nM, AMD3100 300 nM, co-administered with NNZ-4921
Method: Glass coverslips were obtained from New Zealand BioLabs, size 18 mm×18 mm. The coverslips were placed in a 150 mm Petri dish, at 8 cover slips per dish. Both sides of the coverslips were soaked and washed in absolute ethanol. The ethanol was discarded, and autoclaved MilliQ® was added to rinse both sides of coverslips. The water was then discarded, and the coverslips were air dried under the laminar flow.
Poly-D-lysine (PDL) was obtained from Sigma (P7280, lyophilized powder, γ-irradiated, average mol wt 30,000-70,000, cell culture tested). This was diluted with autoclaved PBS to make a stock solution of 1 mg/ml. The stock solution was divided into aliquots of 500 μl/tube and stored at −20° C.
For experiments, the stock solution of PDL was diluted with PBS 1:10 to make working solution of with a final concentration of 100 μg/ml. Approximately 100 μl of the PDL working solution was added to the coverslips and this was incubated at 34° C. for 2 hours (minimum) to overnight.
Next, more than 10 ml autoclaved MilliQ® was added into each Petri dish and the PDL-coated coverslips were rinsed. The coverslips were then transferred to 6 well culture plates. After air drying, the plates were wrapped in foil and stored at 4° C. until use. Storage was possible for up to 2 weeks.
Rat pups were used for this experiment (Wistar rats), either P3/4 or P7/8.
For extraction of P3/4 cerebellar cortices, 0.5 ml of ice-cold PBS/0.65% D(+)-glucose buffer was placed into a Petri dish and the tissue was placed into this solution. For extraction of P7/8 cerebellar cortices, 1.0 ml of ice-cold PBS/0.65% D(+)-glucose buffer was placed into a Petri dish and the tissue was placed into this solution.
The laminated cerebellar cortex was removed surgically and stored immediately in ice-cold PBS/0.65% D(+)-glucose buffer using the amounts as noted above. The cortex was then transferred to a Petri dish, and the meninges were removed from the cerebellar. The tissue was sliced by scissors, and passed once (P3/P4 pups) or twice (P7/P8 pups) through a 23-gauge sized needle attached to a 1 cc syringe to obtain uniformly sized microexplants. This was set aside in a Petri dish.
Next, the tissue was transferred into a 15 ml Falcon tube and centrifuged for 2 minutes at 350 rpm, at 4° C. The PBS/Glu(+) buffer was carefully discarded using a pipette. The pellet was resuspended in cold Neurobasal® medium (Invitrogen), at 1 ml per pup. This was centrifuged for 2 minutes at 350 rpm (60XG), at 4° C.
The medium was discarded and the pellet was resuspended in warm Neurobasal® medium, at 0.5 ml per P3/4 pup and 1.5 ml per P7/8 pup. This was then seeded on PDL-coated cover slips in 6 well plates at a volume of 40-45 μl per coverslip.
The coverslips were incubated at 34° C., in 5% CO2, with 100% humidity for 45 minutes to 1.5 hours to allow adherence. Then, 1 ml of Neurobasal® medium was added per well and the microexplants were checked under a microscope for adherence.
The toxins 3-nitropropionic acid and glutamate were prepared at 100× concentrations. For 50 mM 3-nitropropionic acid (Sigma), the stock solution was titrated with NaOH to a pH value of 7-7.2. For 50 mM L-glutamate, this was dissolved under heat (hot water).
As a negative control, 10 μl of 3-nitropropionic acid and 10 μl of glutamate was administered (4 wells). As a positive control, 20 μl of PBS was administered to normoxic microexplants without any toxins (4 wells). […]

[1] = molecular target: T1, homodimeric CXCR4 receptor (Homo sapiens, UniProt P61073); assay: 125I-SDF-1 displacement binding study (CEREP); conditions: recombinant homodimeric CXCR4 expressing HEK293 cells; unlabelled peptide in competition
T1 construct: host or cells: HEK293
Method: This was determined by radioactive ^125I-SDF-1 displacement studies using CXCR4 homodimeric receptors and unlabelled NNZ-4921 and NRP2945 in competition.

neuronal stem cells = conditions: cited from earlier work
[2] = molecular target: T2, homodimeric CXCR4 receptor (recombinant, expressed in HEK293 cells) (UniProt P61073 1-352, limits assumed); assay: 125I-SDF-1 displacement on HEK293 cells expressing recombinant homodimeric CXCR4 (CEREP)
T2 construct: whole, on cells; also called CXCR4 homodimeric receptors; homodimeric CXCR4 receptor complex
T2 sequence (P61073 whole entry): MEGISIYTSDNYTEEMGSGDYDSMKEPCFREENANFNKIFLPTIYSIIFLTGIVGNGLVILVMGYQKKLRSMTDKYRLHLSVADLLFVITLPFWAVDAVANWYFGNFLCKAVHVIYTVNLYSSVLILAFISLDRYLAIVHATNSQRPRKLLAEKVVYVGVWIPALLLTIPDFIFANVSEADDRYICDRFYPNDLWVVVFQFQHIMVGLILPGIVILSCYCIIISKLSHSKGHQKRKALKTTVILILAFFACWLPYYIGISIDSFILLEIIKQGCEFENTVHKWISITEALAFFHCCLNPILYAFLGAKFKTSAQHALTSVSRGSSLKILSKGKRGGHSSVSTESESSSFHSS

T1 sequence (P61073 whole entry): as above

In the case of `c1cc(CN2CCCNCCNCCCNCC2)ccc1CN1CCCNCCNCCCNCC1` [AMD3100, reference compound], the “toxicity on W9-hESCs” value (human W9-hESCs) is reported as “did not show any toxicity” and the “block of NNZ-4921 neuronal survival-promoting activity” value (cerebellar granule cells) is reported as “completely block”.

In the case of “GRRAAPGR-β-Ala-GG (GRRAAPGR[βAla]GG) [NRP2983, synthetic 11-mer peptidomimetic closely related to NRP2945]”, the “promotion of survival of cultivated cerebellar cells” value (cerebellar granule cells; 1fM NRP2983, oxidatively stressed cerebellar microexplants) is reported as 70%.

For GRRAAPGRAGG [NNZ-4921], the “activity of NNZ-4921 in reducing cell death in presence of eotaxin-3 in combination with AMD3100” value (cerebellar granule cells; 10 fM or 100 fM NNZ-4921) was “completely blocked” and the “displacement of 125I-SDF-1 from homodimeric CXCR4 receptor” value [1] was “not able to displace the radioactive ligand SDF-1”.

For “SDF-1: natural ligand for the CXCR4 receptor”, the “EC50 values for chemoattraction” value (neuronal stem cells; SDF-1) is listed as “lower nanomolar range” and the “minimal concentration required to chemoattract neuronal stem cells” value (neuronal stem cells; Xu and Heilshorn, 2012) is listed as 9 nM.

For “eotaxin-3: human recombinant eotaxin-3 (Pharmaco), ligand of the CCR3 receptor, partial agonist”, the “block of NNZ-4921 neuronal survival-promoting activity” value (cerebellar granule cells) was “abrogation of the neuroprotective effect; also recorded: completely blocked” and the “effect of eotaxin-3 alone on neuronal survival” value (cerebellar granule cells; without NNZ-4921, normoxic or oxidative/excitotoxic stress conditions) was “no toxic effect; also recorded: no effect on the overall neuronal survival rate”.

B1: NNZ-4921 (peptide)
peptide: GRRAAPGRAGG
B1: no binding [2].
